Where two headings read alike, the source gives them in different places.
What was measured:
NCI-H1417 SCLC xenograft [1] = assay: Efficacy in NCI-H1417 SCLC xenograft model; assay type: in vivo, female athymic nude mice
[2] = tested on: LU2514 SCLC patient derived xenograft; assay: Efficacy in LU2514 HuPrime SCLC PDX model; assay type: in vivo, female BALB/c nude mice
Method: Tumor growth inhibition analysis was performed on Day 28 post treatment, the last day of dosing.

[3] = tested on: LU1480 SCLC patient derived xenograft; assay: Efficacy in LU1480 HuPrime SCLC PDX model; assay type: in vivo, female BALB/c nude mice
[4] = tested on: LXFS 573 SCLC patient derived xenograft; assay: Efficacy in LXFS 573 SCLC PDX model; assay type: in vivo, female NMRI-Foxn1nu mice; settings: 5 to 10 mg/kg oral
[5] = tested on: LU2527 lung NEC patient-derived xenograft; assay type: in vivo; settings: 1.5 and 5 mg/kg orally QD
[6] = tested on: GA0087 gastric NEC patient-derived xenograft; assay type: in vivo; settings: 1.5 and 5 mg/kg orally QD
[7] = tested on: gene expression in MKL-1 cells; assay: Modulation of gene expression by RNA-seq, MKL-1 cells; assay type: cell-based, human; settings: 10 and 100 nM, 3 days
Method: (§1) Libraries were sequenced on an Illumina NextSeq® 500 System (Illumina, San Diego, Calif.) using 75 base paired-end RNA sequencing. Sequenced reads were mapped to the hg19 human genome build and differential expression was determined by analysis of variance across all replicates relative to the vehicle control.
(§2) Sequenced reads were mapped to the hg19 human genome build using the Spliced Transcripts Alignment to a Reference (STAR) software tool (©Alexander Dobin, 2009-2016) and transcript counts were normalized using the Empirical Analysis of Digital Gene Expression Data in R (edgeR) and Differential gene expression analysis based on the negative binomial distribution (DESeq2) software tools ((Bioconductor, 2003-2017). Differential expression was determined by analysis of variance across all replicates relative to the vehicle control.

[8] = tested on: gene expression in MS-1 cells; assay: Modulation of gene expression by RNA-seq, MS-1 cells; assay type: cell-based, human; settings: 10 and 100 nM, 3 days
Method: as §1, §2

[9] = tested on: ST18 and FREM2 gene expression in MKL-1 tumors; assay: In vivo xenograft dose-response of PD biomarker genes, MKL-1 tumors; design: species or system female NSG mice; settings: 1, 2.5, or 5 mg/kg PO BID x4.5, tumors 4 hours after last dose
Source text: (§3) Female NSG mice bearing palpable hMCC MKL-1 and MS-1 tumors were randomized into four groups of three mice each. […] The fourth group was orally administered vehicle as a control on the BID schedule. Four hours after the last dosing, tumors were collected into RNAlater and stored frozen.
(§4) Total RNA was eluted in RNase-free water and analyzed by qRT-PCR.

[10] = tested on: ST18 and FREM2 gene expression in MS-1 tumors; assay: In vivo xenograft dose-response of PD biomarker genes, MS-1 tumors; design: species or system female NSG mice; settings: 1, 2.5, or 5 mg/kg PO BID x4.5, tumors 4 hours after last dose
Source text: as §3, §4

LNCaP cells = assay: LNCaP cell proliferation with DHT and irradiation; assay type: cell-based, human; settings: 100 nM Compound A with 10 nM DHT and 2Gy irradiation, 220 hours
Method: LNCaP cells are androgen-sensitive human prostate adenocarcinoma cells. […] The proliferation of the LNCap cells was monitored for 220 hours.

[11] = Hemodynamic and ECG parameters in anesthetized guinea pigs; assay type: in vivo, male Dunkin Hartley guinea pigs
Source text: Animals were monitored throughout the experiment.

[12] = 4-week oral gavage pivotal toxicity study with 4-week recovery in dogs (incl. ECG, toxicokinetics); assay type: in vivo, Beagle dogs
Method: The QTc interval was calculated using the Fridericia method.

[13] = Pharmacokinetics after IV and oral dose, rats; assay type: in vivo, Sprague Dawley rats; settings: IV dosing, rats (greater than liver blood flow)
[14] = target: MDR1 (human P-gp)-MDCK cells (Homo sapiens (Human), UniProt P08183); assay: Permeability in MDR1-MDCK cells; assay type: in vitro ADME; settings: B→A direction
Sequence of MDR1 (human P-gp)-MDCK cells (P08183 whole entry): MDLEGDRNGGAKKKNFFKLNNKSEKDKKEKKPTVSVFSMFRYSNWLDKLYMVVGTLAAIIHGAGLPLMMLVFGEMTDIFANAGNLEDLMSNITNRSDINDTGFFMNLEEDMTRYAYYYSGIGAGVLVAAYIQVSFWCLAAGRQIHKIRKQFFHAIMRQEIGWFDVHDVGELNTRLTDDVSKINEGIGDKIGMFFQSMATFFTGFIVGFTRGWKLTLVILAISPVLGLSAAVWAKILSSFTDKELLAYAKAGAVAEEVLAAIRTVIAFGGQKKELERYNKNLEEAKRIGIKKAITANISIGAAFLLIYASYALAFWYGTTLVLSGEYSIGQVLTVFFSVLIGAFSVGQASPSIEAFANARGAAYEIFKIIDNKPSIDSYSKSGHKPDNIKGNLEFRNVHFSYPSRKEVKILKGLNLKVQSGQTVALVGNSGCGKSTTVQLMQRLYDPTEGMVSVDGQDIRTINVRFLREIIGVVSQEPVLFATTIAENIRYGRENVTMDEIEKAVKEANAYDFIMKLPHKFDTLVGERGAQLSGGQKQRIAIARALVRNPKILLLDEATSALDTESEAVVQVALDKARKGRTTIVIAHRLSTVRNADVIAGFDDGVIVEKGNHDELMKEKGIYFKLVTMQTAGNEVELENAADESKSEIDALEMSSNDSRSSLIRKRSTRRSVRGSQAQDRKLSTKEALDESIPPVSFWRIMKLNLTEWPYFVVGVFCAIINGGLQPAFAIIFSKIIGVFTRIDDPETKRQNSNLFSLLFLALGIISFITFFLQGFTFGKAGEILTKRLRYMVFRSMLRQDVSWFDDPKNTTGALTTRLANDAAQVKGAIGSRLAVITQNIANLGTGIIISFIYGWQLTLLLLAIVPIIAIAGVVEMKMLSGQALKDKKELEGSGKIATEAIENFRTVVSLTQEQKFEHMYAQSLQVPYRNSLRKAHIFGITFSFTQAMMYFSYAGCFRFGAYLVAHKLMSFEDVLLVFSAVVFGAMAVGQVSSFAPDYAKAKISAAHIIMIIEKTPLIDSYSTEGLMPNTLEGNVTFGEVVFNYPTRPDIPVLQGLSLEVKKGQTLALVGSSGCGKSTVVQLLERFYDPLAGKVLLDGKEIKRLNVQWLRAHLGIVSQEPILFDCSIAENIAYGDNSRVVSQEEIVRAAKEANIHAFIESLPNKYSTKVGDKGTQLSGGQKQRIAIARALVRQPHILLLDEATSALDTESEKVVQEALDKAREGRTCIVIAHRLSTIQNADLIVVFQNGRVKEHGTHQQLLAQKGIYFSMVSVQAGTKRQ

[15] = Metabolism in cryopreserved primary hepatocytes; assay type: in vitro ADME, mouse, rat, dog, monkey, human
[16] = tested on: recombinant human CYP enzymes; assay: CYP reaction phenotyping with recombinant human CYP enzymes; assay type: in vitro ADME
Source text: The role of non-CYP enzymes in the metabolism of Compound A is yet to be ascertained.

[17] = Excretion in bile duct cannulated rats; assay type: in vivo; settings: IV dosing, 24-hour period
CYP2C9 = CYP2C9 (Homo sapiens (Human), UniProt P11712); assay: CYP inhibition in pooled human liver microsomes, CYP2C9; assay type: in vitro ADME; settings: up to 50 μM
Sequence of CYP2C9 (P11712 whole entry): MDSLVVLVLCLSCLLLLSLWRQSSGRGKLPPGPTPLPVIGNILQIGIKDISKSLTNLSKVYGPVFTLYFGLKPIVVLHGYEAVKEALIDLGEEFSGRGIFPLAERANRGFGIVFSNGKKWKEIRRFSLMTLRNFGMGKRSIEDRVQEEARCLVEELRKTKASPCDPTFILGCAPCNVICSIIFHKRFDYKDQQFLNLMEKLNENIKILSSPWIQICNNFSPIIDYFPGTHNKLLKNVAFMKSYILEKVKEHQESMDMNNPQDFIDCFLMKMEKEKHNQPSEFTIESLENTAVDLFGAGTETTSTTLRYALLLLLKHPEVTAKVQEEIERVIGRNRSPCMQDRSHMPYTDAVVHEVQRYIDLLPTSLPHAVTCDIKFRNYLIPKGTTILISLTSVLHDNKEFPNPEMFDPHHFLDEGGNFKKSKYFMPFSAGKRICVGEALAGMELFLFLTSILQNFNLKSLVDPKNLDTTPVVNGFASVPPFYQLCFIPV

CYP2D6 = CYP2D6 (Homo sapiens (Human), UniProt P10635); assay: CYP inhibition in pooled human liver microsomes, CYP2D6; assay type: in vitro ADME; settings: up to 50 μM
Sequence of CYP2D6 (P10635 whole entry): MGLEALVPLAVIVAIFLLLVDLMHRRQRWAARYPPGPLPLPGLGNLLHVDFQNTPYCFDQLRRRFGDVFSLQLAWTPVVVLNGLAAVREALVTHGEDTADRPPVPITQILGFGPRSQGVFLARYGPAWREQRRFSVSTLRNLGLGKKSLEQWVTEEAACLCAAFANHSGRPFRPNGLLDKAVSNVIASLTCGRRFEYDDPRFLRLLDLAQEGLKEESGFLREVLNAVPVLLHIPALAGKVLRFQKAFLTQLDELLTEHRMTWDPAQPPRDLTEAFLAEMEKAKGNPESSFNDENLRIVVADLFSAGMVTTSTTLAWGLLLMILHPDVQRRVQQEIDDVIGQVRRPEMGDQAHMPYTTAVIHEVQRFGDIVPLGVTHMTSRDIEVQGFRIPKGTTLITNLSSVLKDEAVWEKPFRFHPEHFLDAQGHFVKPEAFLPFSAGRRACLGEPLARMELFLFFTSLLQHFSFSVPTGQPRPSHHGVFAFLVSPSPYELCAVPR

[18] = Predicted human pharmacokinetics (allometric scaling)
[19] = Exploratory toxicity study in mice; assay type: in vivo, CD-1 mice; settings: for reduction in neutrophil counts versus concurrent controls: 60 mg/kg/dose QOD
Source text: Additional animals were included for TK evaluation.

[20] = tested on: LXFS 573 SCLC patient-derived xenograft; settings: for SS (number of study survivors): Day 133, N=8
[21] = Exploratory toxicity study in dogs; settings: 0.5 mg/kg/day 5 days on/2 days off, Day 12
[22] = 4-week toxicity study with 4-week recovery in mice (incl. toxicokinetics); settings: QDx5/week schedule
NCI-H1417 SCLC xenograft [23] = settings: etoposide monotherapy 24 mg/kg SC QDx3

COc1ccc(-c2c(-c3ccc(C#N)c(F)c3)nc(N3CCC(N)CC3)n(C)c2=O)cc1F [Compound A, 4-[2-(4-amino-piperidin-1-yl)-5-(3-fluoro-4-methoxy-phenyl)-1-methyl-6-oxo-1,6-dihydro-pyrimidin-4-yl]-2-fluoro-benzonitrile]
Median Tumor Volumes (mm^3) Day 0 (NCI-H1417 SCLC xenograft [1]; 2.5 mg base/kg PO QDx65): 109.2 mm^3
mean body weight gain by end of study (NCI-H1417 SCLC xenograft [1]; 2.5 mg base/kg PO QDx65): 1%
Median Tumor Volumes (mm^3) Day 0 (NCI-H1417 SCLC xenograft [1]; 5 mg base/kg PO QDx65): 108.2 mm^3
mean body weight gain by end of study (NCI-H1417 SCLC xenograft [1]; 5 mg base/kg PO QDx65): 7.5%
Median Tumor Volumes (mm^3) Day 1 ([2]; 5 mg base/kg PO QDx28): 173.2 mm^3
Median Tumor Volumes (mm^3) Day 1 ([2]; 10 mg base/kg PO QDx28): 173.7 mm^3
mean body weight losses ([2]; both studies with LU2514 model): < 10%
Median Tumor Volumes (mm^3) Day 1 ([3]; 5 mg base/kg PO QDx21): 89.5 mm^3
Median Tumor Volumes (mm^3) Day 1 ([3]; 10 mg base/kg PO QDx21): 87.1 mm^3
mean body weight losses [4]: ≤ 3%
tolerability [5]: acceptably tolerated
tolerability [6]: acceptably tolerated
ST18 and FREM2 gene expression changes (upregulated) [7]: at least 2 fold
ST18 and FREM2 gene expression changes (upregulated) [8]: at least 2 fold
change in ST18 and FREM2 gene expression [9]: ≥ 2 fold
change in ST18 and FREM2 gene expression [10]: ≥ 2 fold
LNCaP cell proliferation (LNCaP cells): significantly inhibits LNCaP cell proliferation
maximum increase of QTcB interval versus time-matched vehicle ([11]; 10 mg base/kg IV): approximately 9%
maximum increase of QTcB interval versus time-matched vehicle ([11]; 15 mg base/kg IV): ~13%
maximum increase of QTcB interval versus time-matched vehicle ([11]; 20 mg base/kg IV): ~16%
maximum suppression of HR versus vehicle ([11]; 20 mg base/kg IV, 9 minutes into 10-minute infusion): 19%
effect on MAP or its components ([11]; 5 to 20 mg base/kg IV versus time-matched vehicle): No notable effect
animals with moribund euthanasia ([12]; 0.375 to 1.5 mg base/kg/dose QW, study Days 13 to 23): 11 animals
NOEL for CV and respiratory changes ([12]; QW): 0.75 mg base/kg/dose
systemic clearance [13]: high
permeability [14]: 16.5 ×10⁻⁶ cm/s
metabolic stability [15]: greater in rat and dog followed by human and monkeys while being least stable in mouse hepatocytes
enzyme responsible for oxidative metabolism [16]: CYP3A4 appears to be predominantly responsible
dose excreted intact (urine plus bile) [17]: 26.3 % of the dose
dose excreted intact in urine [17]: 8.5 % of dose
direct inhibitory effect on CYP2C9 (CYP2C9): little to no direct inhibitory effect
direct inhibitory effect on CYP2D6 (CYP2D6): little to no direct inhibitory effect
predicted clearance [18]: 9.4 mL/min/kg
increase in platelets on Day 8 ([19]; 10 mg/kg/day 5 days on/2 days off, after 2-day dosing holiday): > 2 fold
reduction in neutrophil counts versus concurrent controls ([19]; females): 66%
reduction in neutrophil counts versus concurrent controls ([19]; males): 83%
greatest reduction in neutrophil counts versus concurrent controls and pre-study values ([19]; 5 days on/2 days off schedule): approximately 90%
SS (number of study survivors) ([20]; Compound A at 5 mg/kg/day PO): 7
MTV of study survivors on Day 133 ([20]; Compound A monotherapy 5 mg/kg PO daily): 1064 mm3
study survivors on Day 133 ([20]; Compound A monotherapy 5 mg/kg PO daily, n=8): seven
body weight loss of female sacrificed moribund [21]: 10.8%
NOAEL [22]: 5 mg base/kg/dose
STD10 [22]: > 45 mg base/kg/dose

COc1cc([C@@H]2c3cc4c(cc3[C@@H](O[C@@H]3O[C@@H]5CO[C@@H](C)O[C@H]5[C@H](O)[C@H]3O)[C@H]3COC(=O)[C@H]23)OCO4)cc(OC)c1O [Etoposide, etoposide]
median TTE ([20]; Etoposide at 24 mg/kg/day SC days 1-3 + Vehicle PO days 4-133): 63 days
SS (number of study survivors) ([20]; Etoposide at 24 mg/kg/day SC days 1-3 + Vehicle): 0
% TGD (NCI-H1417 SCLC xenograft [23]): 92%
TGD (NCI-H1417 SCLC xenograft [23]): 24 days
median TTE (NCI-H1417 SCLC xenograft [23]): 50 days

— patent US10548896B2, “Treatment of relapsed and/or refractory solid tumors and non-Hodgkin's lymphomas” (CELGENE QUANTICEL RESEARCH, INC., priority 2016, dated 2020)
